According to the supplement of paper PMC10307832:

Legend:
Test in all cases: relative viability (nuclei count vs DMSO), 5 days (fraction); higher = more cells survive
[1] = system: EKVX
How it was run: (§1)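 Nuclei were stained with Hoechst during a one-step fixation (final 0.05% Triton X-100, 1% formaldehyde, 1 ug/ml Hoechst) carried out 5 days after dosing, then counted on 4× images. The cells, lung cancer lines in 1536-well plates, had been dosed by pin tool the day after seeding with one drug alone or a fixed anchor-drug dose plus five library-drug doses (not always all listed) in √10 steps. Relative viability is the nuclei count in treated wells divided by that in vehicle wells, and each value is the median of duplicate plates.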

[2] = system: NCI-H661
How it was run: as §1

[3] = system: 201T
How it was run: as §1

[4] = system: NCI-H1666
How it was run: as §1

[5] = system: NCI-H2170
How it was run: as §1

[6] = system: SW 900
How it was run: as §1

[7] = system: BEN
How it was run: as §1

[8] = system: LOU-NH91
How it was run: as §1

[9] = system: HARA
How it was run: as §1

[10] = system: NCI-H460
How it was run: as §1

[11] = system: NCI-H2009
How it was run: as §1

[12] = system: NCI-H727
How it was run: as §1

[13] = system: NCI-H1437
How it was run: as §1

[14] = system: HCC-366
How it was run: as §1

[15] = system: PC-14
How it was run: as §1

[16] = system: NCI-H3122
How it was run: as §1

[17] = system: NCI-H1650
How it was run: as §1

[18] = system: LK-2
How it was run: as §1

[19] = system: COR-L 105
How it was run: as §1

[20] = system: NCI-H441
How it was run: as §1

[21] = system: ABC-1
How it was run: as §1

For `Cc1sc2c(c1C)C(c1ccc(Cl)cc1)=N[C@@H](CC(=O)OC(C)(C)C)c1nnc(C)n1-2` [JQ1] + Nc1ncn([C@H]2C[C@H](O)[C@@H](CO)O2)c(=O)n1 [Decitabine] (partner 2 µM), the relative viability ([1]; first compound 0.04 µM) was 0.338, the relative viability ([1]; first compound 0.1265 µM) was 0.36 and the relative viability ([1]; first compound 0.4 µM) was 0.359. For the same compound, the relative viability ([1]; first compound 1.265 µM) was 0.35, the relative viability ([1]; first compound 4 µM) was 0.336 and the relative viability ([2]; first compound 0.04 µM) was 0.505. It also gave a relative viability ([2]; first compound 0.1265 µM) of 0.47, a relative viability ([2]; first compound 0.4 µM) of 0.527 and a relative viability ([2]; first compound 1.265 µM) of 0.475. For the same compound, the relative viability ([2]; first compound 4 µM) was 0.492, the relative viability ([3]; first compound 0.04 µM) was 0.88 and the relative viability ([3]; first compound 0.4 µM) was 0.694. It also gave a relative viability ([3]; first compound 1.265 µM) of 0.527, a relative viability ([3]; first compound 4 µM) of 0.453 and a relative viability ([4]; first compound 0.04 µM) of 0.763. It also gave a relative viability ([4]; first compound 0.1265 µM) of 0.745, a relative viability ([4]; first compound 0.4 µM) of 0.577 and a relative viability ([4]; first compound 1.265 µM) of 0.589. It also gave a relative viability ([4]; first compound 4 µM) of 0.504, a relative viability ([5]; first compound 0.04 µM) of 0.415 and a relative viability ([5]; first compound 0.1265 µM) of 0.441. For the same compound, the relative viability ([5]; first compound 0.4 µM) was 0.473, the relative viability ([5]; first compound 1.265 µM) was 0.345 and the relative viability ([5]; first compound 4 µM) was 0.255. The relative viability ([6]; first compound 0.04 µM) was 0.431, the relative viability ([6]; first compound 0.1265 µM) was 0.472 and the relative viability ([6]; first compound 0.4 µM) was 0.426. For the same compound, the relative viability ([6]; first compound 1.265 µM) was 0.307, the relative viability ([6]; first compound 4 µM) was 0.235 and the relative viability ([7]; first compound 0.04 µM) was 0.712. The relative viability ([7]; first compound 0.1265 µM) was 0.578, the relative viability ([7]; first compound 0.4 µM) was 0.63 and the relative viability ([7]; first compound 1.265 µM) was 0.511. For the same compound, the relative viability ([7]; first compound 4 µM) was 0.38, the relative viability ([8]; first compound 0.04 µM) was 0.826 and the relative viability ([8]; first compound 0.1265 µM) was 0.725. It also gave a relative viability ([8]; first compound 0.4 µM) of 0.554, a relative viability ([8]; first compound 1.265 µM) of 0.491 and a relative viability ([8]; first compound 4 µM) of 0.521. It also gave a relative viability ([9]; first compound 0.04 µM) of 0.617, a relative viability ([9]; first compound 0.1265 µM) of 0.49 and a relative viability ([9]; first compound 0.4 µM) of 0.457. The relative viability ([9]; first compound 1.265 µM) was 0.385, the relative viability ([9]; first compound 4 µM) was 0.249 and the relative viability ([10]; first compound 0.04 µM) was 0.488. The relative viability ([10]; first compound 0.1265 µM) was 0.344, the relative viability ([10]; first compound 0.4 µM) was 0.296 and the relative viability ([10]; first compound 1.265 µM) was 0.165. For the same compound, the relative viability ([10]; first compound 4 µM) was 0.226, the relative viability ([11]; first compound 0.04 µM) was 0.38 and the relative viability ([11]; first compound 0.1265 µM) was 0.296. For the same compound, the relative viability ([11]; first compound 0.4 µM) was 0.354, the relative viability ([11]; first compound 1.265 µM) was 0.276 and the relative viability ([11]; first compound 4 µM) was 0.213. It also gave a relative viability ([12]; first compound 0.04 µM) of 1, a relative viability ([12]; first compound 0.1265 µM) of 0.877 and a relative viability ([12]; first compound 0.4 µM) of 0.506. It also gave a relative viability ([12]; first compound 1.265 µM) of 0.597, a relative viability ([12]; first compound 4 µM) of 0.649 and a relative viability ([13]; first compound 0.04 µM) of 0.544. It also gave a relative viability ([13]; first compound 0.1265 µM) of 0.577, a relative viability ([13]; first compound 0.4 µM) of 0.55 and a relative viability ([13]; first compound 1.265 µM) of 0.486. It also gave a relative viability ([13]; first compound 4 µM) of 0.37, a relative viability ([14]; first compound 0.04 µM) of 0.309 and a relative viability ([14]; first compound 0.4 µM) of 0.35. For the same compound, the relative viability ([14]; first compound 1.265 µM) was 0.36, the relative viability ([14]; first compound 4 µM) was 0.293 and the relative viability ([15]; first compound 0.04 µM) was 0.188. For the same compound, the relative viability ([15]; first compound 0.1265 µM) was 0.19, the relative viability ([15]; first compound 0.4 µM) was 0.185 and the relative viability ([15]; first compound 1.265 µM) was 0.0999. It also gave a relative viability ([15]; first compound 4 µM) of 0.117, a relative viability ([16]; first compound 0.04 µM) of 0.489 and a relative viability ([16]; first compound 0.1265 µM) of 0.395. It also gave a relative viability ([16]; first compound 0.4 µM) of 0.517, a relative viability ([16]; first compound 1.265 µM) of 0.343 and a relative viability ([16]; first compound 4 µM) of 0.38. The relative viability ([17]; first compound 0.04 µM) was 0.442, the relative viability ([17]; first compound 0.1265 µM) was 0.44 and the relative viability ([17]; first compound 0.4 µM) was 0.333. For the same compound, the relative viability ([17]; first compound 1.265 µM) was 0.185, the relative viability ([17]; first compound 4 µM) was 0.146 and the relative viability ([18]; first compound 0.04 µM) was 0.272. It also gave a relative viability ([18]; first compound 0.1265 µM) of 0.351, a relative viability ([18]; first compound 0.4 µM) of 0.27 and a relative viability ([18]; first compound 1.265 µM) of 0.132. For the same compound, the relative viability ([18]; first compound 4 µM) was 0.129, the relative viability ([19]; first compound 0.04 µM) was 0.558 and the relative viability ([19]; first compound 0.1265 µM) was 0.457. It also gave a relative viability ([19]; first compound 0.4 µM) of 0.399, a relative viability ([19]; first compound 1.265 µM) of 0.33 and a relative viability ([19]; first compound 4 µM) of 0.386. The relative viability ([20]; first compound 0.04 µM) was 0.257, the relative viability ([20]; first compound 0.1265 µM) was 0.266 and the relative viability ([20]; first compound 0.4 µM) was 0.251. The relative viability ([20]; first compound 1.265 µM) was 0.152, the relative viability ([20]; first compound 4 µM) was 0.17 and the relative viability ([21]; first compound 0.04 µM) was 1.19. The relative viability ([21]; first compound 0.1265 µM) was 0.889, the relative viability ([21]; first compound 0.4 µM) was 0.691 and the relative viability ([21]; first compound 1.265 µM) was 0.837. The relative viability ([21]; first compound 4 µM) was 0.582.
